Test results reported in publication PMC12036557, “Functional Imaging of CYP3A4 at Multiple Dimensions Using an AI‐Driven High Performance Fluorogenic Substrate” (Small (Weinheim an Der Bergstrasse, Germany), 2025).
Like-named read-outs stand apart in the source and are kept apart here.

What was measured:
hCYP3A4 in HLMs [1] = target: T1, hCYP3A4 in HLMs (Homo sapiens, UniProt P08684); test: NFa-based screening and characterizing of hCYP3A4 inhibitors in HLMs; settings: inhibitor 1 μM, HLMs, NFa as fluorogenic substrate
CYP3A4 [2] = target: T2, CYP3A4 (Homo sapiens, UniProt P08684); design: expressed in transfected cells; host or cells: CHO-3A4 stably transfected cell line; settings: cited from earlier work; for Specificity / cell-membrane permeability (Shortages): previously reported fluorescent substrates; for Specificity: ref 7-10 of the supplement; for cell-membrane permeability (Shortages): 9 of the supplement
hCYP3A4 in HLMs [3] = target: T1, hCYP3A4 in HLMs; settings: 1 µM
[4] = tested on: MCF‐7, Hep3B, and U87 cells; test: Cytotoxicity assays; format: cell-based
[5] = Metabolic stability assay of 4-HNFa in phase II metabolizing system; format: in vitro ADME; settings: human, pH 7.4; HLMs in the presence of UDPGA; read-out: metabolic half-life t1/2
[6] = Optical properties, photostability and pH stability of NFa and 4-HNFa; format: physicochemical; design: maximum UV absorption: unit not given here
[7] = tested on: panel of human recombinant cytochrome P450 enzymes; test: P450 reaction phenotyping analysis; format: biochemical; settings: each recombinant CYP 2.5 nM, 37 °C, 30 min
CYP3A4 [8] = target: T2, CYP3A4; test: Enzyme kinetic analyses of NFs 4-hydroxylation by hCYP3A4; format: biochemical; design: purchased Cypex
CYP3A4 [9] = target: T2, CYP3A4; test: in vitro; settings: pH 7.4

T2 sequence (P08684 whole entry): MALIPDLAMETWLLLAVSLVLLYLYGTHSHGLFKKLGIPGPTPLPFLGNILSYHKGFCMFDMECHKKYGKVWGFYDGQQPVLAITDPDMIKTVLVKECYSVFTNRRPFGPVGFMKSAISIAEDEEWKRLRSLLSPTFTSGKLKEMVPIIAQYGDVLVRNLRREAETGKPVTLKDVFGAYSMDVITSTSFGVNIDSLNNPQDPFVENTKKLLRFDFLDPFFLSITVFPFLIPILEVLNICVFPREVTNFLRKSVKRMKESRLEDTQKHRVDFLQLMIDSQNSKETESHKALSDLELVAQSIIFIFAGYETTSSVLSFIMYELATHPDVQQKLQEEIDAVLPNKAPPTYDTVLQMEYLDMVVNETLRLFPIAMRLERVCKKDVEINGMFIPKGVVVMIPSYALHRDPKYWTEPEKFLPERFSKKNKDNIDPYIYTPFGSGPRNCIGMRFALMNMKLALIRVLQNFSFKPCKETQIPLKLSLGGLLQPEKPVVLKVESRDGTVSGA
T1 sequence (P08684 whole entry): as above

## COc1cc2c(cc1O)[C@@H](Cc1ccc(O)c(Oc3ccc(C[C@@H]4c5cc(OC)c(OC)cc5CCN4C)cc3)c1)N(C)CC2 [Daurisoline]
hCYP3A4 in HLMs [1]
  Residual activity: 91.85%

## COc1ccc(-c2cc(=O)c3c(O)c(OC)c(O)c(OC)c3o2)cc1 [Lysionotin]
hCYP3A4 in HLMs [1]
  Residual activity: 96.88%

## CC(C)=CCC[C@](C)(O)[C@H]1CC[C@]2(C)[C@@H]1[C@H](O)C[C@@H]1[C@@]3(C)CC[C@H](O)C(C)(C)[C@@H]3[C@@H](O)C[C@]12C [Protopanaxatriol]
hCYP3A4 in HLMs [1]
  Residual activity: 43.85%

## O=C1c2c(O)cc(O)cc2O[C@H](c2ccc(O)cc2)[C@H]1O [Aromadendrin]
hCYP3A4 in HLMs [1]
  Residual activity: 91.70%

## C=CC(C)(C)c1cc(/C=C/C(=O)c2ccc(O)cc2)c(OC)cc1O [Licochalcone A]
hCYP3A4 in HLMs [1]
  Residual activity: 39.20%

## CC(C)=CCCC(C)(O)[C@H]1CC[C@]2(C)[C@@H]1[C@H](O)C[C@@H]1[C@@]3(C)CC[C@H](O)C(C)(C)[C@@H]3CC[C@]12C (stereo in doubt) [Protopanaxadiol]
hCYP3A4 in HLMs [1]
  Residual activity: 69.66%

## O=c1cc(C(F)(F)F)c2ccc(OCc3ccccc3)cc2o1 [BFC, 7-benzyloxy-4-trifluoromethylcoumarin]
CYP3A4 [2]
  Specificity: CYP3A4 non-specific substrate

## Sanggenone C
hCYP3A4 in HLMs [3]
  Residual activity: 92.64%

## O=C1c2cccc3c(O)ccc(c23)C(=O)N1Cc1cscn1 [4-HNFa, 4-Hydroxyl-N-(4-thiazolemethanamino)-naphtahlimide]
[4]
  cytotoxicity: weak cytotoxicity
[5]
  half-life at 20 μM: 58.6 min
[6]
  Fluorescence quantum yield Φf: 0.129
  Molar extinction coefficient ε: 25300 M⁻¹ cm⁻¹
  maximum UV absorption: 450
  maximum fluorogenic emission: 555 nm
[6]; 2 μM
  pH range of stable fluorescence signals ≈555 nM: 6.5–12.0
[6]; continuous illumination at 450 nm
  photostability: good photostability

## COc1cc2c(cc1OC)-c1cc3ccc4c(c3c[n+]1CC2)OCO4 [Epiberberine]
hCYP3A4 in HLMs [1]
  Residual activity: 89.82%

## O=C1C[C@@H](c2ccc(O)cc2)Oc2cc(O)ccc21 [Liquiritigenin]
hCYP3A4 in HLMs [1]
  Residual activity: 90.60%

## O=C(OCc1ccccc1)c1ccccc1-c1c2ccc(=O)cc-2oc2cc(OCc3ccccc3)ccc12 [DBF, dibenzylfluorescein]
CYP3A4 [2]
  Specificity: CYP2C8, CYP3A4, CYP3A5

## Cc1nc(CN2C(=O)c3cccc4cccc(c34)C2=O)cs1 [NFb, N-(2-Methyl-4-thiazolemethanamino)-naphtahlimide]
[7]
  isoform specificity as P450 substrate: highly specific substrates for hCYP3A4
CYP3A4 [8]
  CL int (V max/K m): 558 µL min^−1/nmol hCYP3A4
  K m: 7.51 ± 0.49 µM

## CC(C)c1nc(CN2C(=O)c3cccc4cccc(c34)C2=O)cs1 [NFd, N-(2-Isopropyl-4-thiazolemethanamino)-naphtahlimide]
[7]
  isoform specificity as P450 substrate: highly specific substrates for hCYP3A4
CYP3A4 [8]
  CL int (V max/K m): 504 µL min^−1/nmol hCYP3A4
  K m: 4.17 ± 0.21 µM

## CCN1C(=O)c2cccc3cccc(c23)C1=O [NEN, N‐ethyl‐1,8‐naphthalimide]
CYP3A4 [2]
  cell‐membrane permeability: very poor cell‐membrane permeability
  cell-membrane permeability (Shortages): low cell-membrane permeability; unavailable in vivo
  Specificity: CYP3A4 specific substrate

## COc1c(/C=C/C(=O)c2ccc(O)cc2)ccc(O)c1CC=C(C)C [Licochalcone C]
hCYP3A4 in HLMs [3]
  Residual activity: 59.04%

## COc1cc2c(=O)n(C)c3c4cc5c(cc4ccc3c2cc1OC)OCO5 [Oxynitidine]
hCYP3A4 in HLMs [1]
  Residual activity: 89.98%

## O=c1ccc2nc3ccc(OCc4ccccc4)cc3oc-2c1 [BzRes, 7-benzyloxyresorufin]
CYP3A4 [2]
  cell-membrane permeability (Shortages): low cell-membrane permeability; unavailable in vivo
  Specificity: CYP3A4 non-specific substrate

## CCN1C[C@]2(OC(=O)c3ccccc3NC(C)=O)CC[C@H](OC)[C@@]34[C@@H]2C[C@@H]([C@@H]13)[C@@]1(O)C[C@H](OC)[C@H]2C[C@@H]4[C@]1(O)[C@H]2OC [Lappaconitine]
hCYP3A4 in HLMs [1]
  Residual activity: 94.46%

## O=c1ccc2ccc(O)cc2o1 [7‐hydroxycoumarin, reference compound]
[5]
  half-life at 20 μM: 16.9 min

## O[C@H]1[C@H]2c3cc4c(cc3CN3CCC(=C[C@@H]1O)[C@H]23)OCO4 [Lycorine]
CYP3A4 [9]
  activity at 1 µM: 92.1%

## CC(C)=CCc1cc(C(=O)/C=C/c2ccc(O)cc2)c(O)cc1O [Bavachalcone]
hCYP3A4 in HLMs [1]
  Residual activity: 90.43%

## COc1cc(C2Oc3cc([C@H]4Oc5cc(O)cc(O)c5C(=O)[C@@H]4O)ccc3OC2CO)ccc1O (stereo partly drawn) [Silybin]
CYP3A4 [9]
  activity at 30 min, 1 µM: 89%

## COc1cc2c(cc1OC)C(=O)/C(=C/c1ccccc1)C2 [D1, (E)-2-benzylidene-5,6-dimethoxy-2,3-dihydro-1H-inden-1-one]
CYP3A4 [9]
  activity at 1 µM: 88%

## COc1ccc(-c2oc3c(CC=C(C)C)c(O)cc(O)c3c(=O)c2O)cc1 [Anhydroicaritin]
hCYP3A4 in HLMs [1]
  Residual activity: 87.82%
